Data from patent US4704277A, “Methods of treating bone disorders” (Sloan-Kettering Institute for Cancer Research, priority 1985, dated 1987).

Columns and labels:
bone = conditions: cited from earlier work
[1] = system: long bones (metaphyses and diaphyses); assay: Bone Ga, Ca, P content and ash weight of bone fragments from gallium-treated rats; format: in vivo, Sprague-Dawley rats; conditions: for bone calcium content vs nontreated: 7 injections of 5 mg over 14 days; for Ga content of bone: gallium treated rats, n=6, 20160 min
Procedure: (§1) Young female (120 g) Sprague-Dawley rats received a course of injections with 0.5 or 5.0 mg gallium nitrate, every other day. The 0.5 mg concentration is approximately equivalent (on a weight/weight basis) to the dose used to treat patients with cancer-related hypercalcemia by Warrell, et. al., supra. The animals received 7 interperitoneal injections over a 9-14 day period. Control groups were injected with carrier only. […] To obtain bone samples the rats were anesthetized and then sacrificed. The long bones were removed and cleaned of all muscle and connective tissue. The metaphyseal (ends containing the growth plate) and diaphyseal (shaft) portions of the bones were separated using a dissecting microscope. The bone pieces were then split and cleaned of all visible marrow, frozen and lyophilized. The split, dried, marrow-free bone fragments were pulverized in a liquid nitrogen cooled colloid mill to produce bone powder. Aliquots of bone particles were used for: (a) ash weight determination, (b) measurement of Ga, Ca and P content and (c) X-ray diffraction analysis. A portion of one bone particle preparation was sieved to uniform size using an #325 stainless steel mesh. Approximately 50 mg of the sieved-particle bone was then dispersed in bromoform:toluene, density=2.0 g/cc (as measured with a pynconometer). The suspension was centrifuged in the cold at 100 x G for 15 minutes. The suspended particles, representing newly formed mineral bone, density <2.0 g/cc were removed, washed with acetone then dried. The pelleted particles, density >2.0 g/cc were similarly washed with acetone and dried. Both the light and heavy density fractions were analyzed for Ga and Ca content.
Gallium content in bone was measured by flameless atomic absorption spectrophotometry. Inorganic phosphorus was measured spectrophotometrically.
In subsequent experiments, rats were given 7 injections with 5 mg gallium nitrate over 14 days. […] As expected, increased calcium content was measured in the heavier density fraction >2.0 g/cc (220±31 vs 132±42 ug Ca/mg bone) which contained the more mineralized and more mature hydroxyapatite crystalline material.

bone cell models = assay: Cytotoxicity in bone cell models; format: cell-based
Description: (§2) Cytotoxicity studies were undertaken to determine if gallium nitrate was cytotoxic to bone tissue. […] At this dose and time, a 20% decrease in ^3 H-thymidine incorporation into DNA was seen.

bone calcium = conditions: humans; application Ser. No. 622,726; cited from earlier work
total serum calcium = assay: Comparative effect of calcitonin and gallium nitrate on total serum calcium; format: in vivo; conditions: one patient; calcitonin many times over recommended dose; FIG. 1
Procedure: Comparative studies were performed as to the effect of Calcitonin on total serum calcium, compared to gallium nitrate in a patient with severe life-threatening hypercalcemia due to bone metastases.

bone hydroxyapatite = assay: Wide angle X-ray diffraction of powdered bone (hydroxyapatite crystal size/perfection, B002); format: in vivo, Sprague-Dawley rats; conditions: for BOO2 (002 line width at half maximum): gallium treated rats, n=11
Procedure: as §1
Aliquots of the powdered bone were subjected to wide angle x-ray diffraction using Cu K(alpha) radiation. Samples were rapidly scanned from 4° 2.phi. to 70° 2.phi. to detect the presence of phases other than hydroxyapatite. Triplicate slow scans from 24° to 28° 2.phi. were used to estimate hydroxyapatite crystal size and perfection based on the line-width measurements (B002) made at the half maximum point of the c-axis 002 reflection at 25.8° 2.phi.. […] As a consequence, crystals formed in the metaphyses of the treated animals were similar to those found in the more mature diaphyses.

bone turnover = assay: Bone turnover in patients with bone metastases on short term gallium nitrate infusion; format: in vivo, human (patients with bone metastases)
Procedure: (§3) These additional experiments were performed to permit evaluation of bone turnover in patients with bone metastases, in response to short term infusion of gallium nitrate.
Seventeen infusions were administered to fifteen patients, five of whom were hypercalcemic. Gallium nitrate was administered as a continuous infusion at daily doses ranging from […], over 5-7 days. Bone turnover was assessed by serial measurements of urinary levels of Ca^2+, hydroxyproline (OHP), and creatinine (Cr), as well as the serum levels of osteocalcin (BGP). […] Mean reduction was 70±18%. Eight patients with increased bone turnover (i.e., a urinary OHP/Cr ratio greater than 6.0), received eleven drug infusions. […] Mean reduction was 49±22%.

[2] = Body weight in gallium nitrate injected rats (lack of toxicity); format: in vivo, Sprague-Dawley rats; conditions: 0.5 or 5.0 mg i.p. every other day, end of 14 day schedule
Procedure: as §1, with “The suspension was centrifuged in the cold at 100 x G for 15 minutes. The suspended particles, representing newly formed mineral bone, density <2.0 g/cc were removed, washed with acetone then dried. The pelleted particles, density >2.0 g/cc were similarly washed with acetone and dried.” left out

[3] = continuous infusion; Warrell 1983, Leyland-Jones 1983; cited from earlier work
bone resorption = assay: Inhibition of bone resorption by gallium nitrate; conditions: direct effect
Procedure: as §3

bone tissue = assay: Histological studies of bone tissue for cytotoxicity
Description: as §2

[4] = patients treated in clinical testing; cited from earlier work

calcitonin
rate of bone resorption (bone; parenteral): transient decrease in the rate of bone resorption | bone mineral content (densimetric) (bone; repetitive injections, Gruber et al.): increase bone mineral content | duration of anti-resorptive effect (bone; tachyphylaxis): short-lived

CC(O)(P(=O)(O)O)P(=O)(O)O [EHDP]
bone mineralization (bone; Schenk et al. 1973): blocks normal bone mineralization and leads to formation of disordered and inadequately calcified bone (osteomalacia)

O=[N+]([O-])[O-].O=[N+]([O-])[O-].O=[N+]([O-])[O-].[Ga+3] [gallium nitrate]
mineral content (ash weights), treated vs control ([1]; 7 injections with 5 mg gallium nitrate over 14 days): not significantly different | site of greatest gallium uptake ([1]; bone fragments, different total doses): metaphyseal bone | bone calcium content vs nontreated ([1]; diaphyseal fragments): No differences in calcium content | Ga content of bone ([1]; diaphyses): 149 ± 30 ng/mg | gallium incorporation into bone ([1]; gallium:calcium ratio, different total doses): incorporated into bone in very low amounts | Ca content of density fraction ([1]; heavier density fraction >2.0 g/cc): 220±31 ug Ca/mg bone | Ga content of density fraction ([1]; heavier density fraction >2.0 g/cc (comparator of the 'vs.')): 2.9±0.4 ug Ga/mg Ca | Ga content of density fraction ([1]; lighter bone fraction, <2.0 g/cc (newly synthesized mineral)): 3.2±0.2 ug Ga/mg Ca | Ca content of density fraction ([1]; lighter fraction <2.0 g/cc (comparator of the 'vs')): 132±42 ug Ca/mg bone | Ga content of bone ([1]; metaphyses): 384 ± 69 ng/mg | bone calcium content vs nontreated ([1]; metaphyses): statistically significant increase in bone calcium content | protein banding patterns on SDS-PAGE, treated vs untreated (bone cell models; 3H-amino acid labeled cell homogenates): no differences | cell numbers or viability (bone cell models; 48 hours, up to 25 uM): Little change in cell numbers or viability | action as consequence of cytotoxic effect on bone cells (bone cell models; conclusion): not a consequence of a cytotoxic effect on bone cells | excessive loss of bone calcium (bone calcium): effective in reducing excessive loss of bone calcium | reduction of elevated serum calcium vs calcitonin (total serum calcium): distinctly greater effect on reducing elevated serum calcium | mineral phases detected (bone hydroxyapatite; all samples, scan 4° to 70° 2.phi.): The only phase detected in all samples was hydroxyapatite | BOO2 (002 line width at half maximum) (bone hydroxyapatite; diaphyses): 0.50 ± .03 degrees | B002 vs control (bone hydroxyapatite; metaphyseal particles): differed significantly | BOO2 (002 line width at half maximum) (bone hydroxyapatite; metaphyses): 0.50 ± .03 degrees | hydroxyapatite crystal size/perfection (bone hydroxyapatite; metaphyses, region of more active bone mineralization): larger or more perfect crystals | urinary OHP/Cr ratio (bone turnover; 6 patients with bone turnover not elevated): no significant change | urinary OHP/Cr ratio (bone turnover; 8 patients with increased bone turnover (OHP/Cr > 6.0)): All patients showed a decrease in OHP/Cr | mean reduction of urinary OHP/Cr ratio (bone turnover; 8 patients with increased bone turnover (OHP/Cr > 6.0), 11 infusions): 49±22% | urinary 24 hour Ca2+ excretion (bone turnover; after each infusion in all 15 patients): markedly reduced after each infusion in all 15 patients | accelerated bone loss (bone turnover; cancer patients with bone metastases): reduces accelerated bone loss | mean reduction of urinary 24 hour Ca2+ excretion (bone turnover; continuous infusion 100-300 mg daily over 5-7 days, 15 patients): 70±18% | body weights or weight gained, treated vs nontreated [2]: no differences | safety of administration [3]: safe and non-toxic | bone resorption (bone resorption): directly inhibits bone resorption | cytotoxic effect at light microscopic level (bone tissue; histology): no evidence of cytotoxic effect | matrix or mineral components (bone tissue; stained sections): no alteration in matrix or mineral components

O=P(O)(O)C(Cl)(Cl)P(=O)(O)O [dichloromethylenediphosphonate]
leukemia [4]: increased development of leukemia

F [fluoride]
bone structure (bone; Jowsey et al. 1968): highly abnormal (lamellar-type) bone structure which is less strong relative to normal bone
